Legend:
[1] = system: Frankliniella occidentalis; test: Insecticidal test against Frankliniella occidentalis; details: in Phaseolus vulgaris, 96 h, read-out: corrected mortality, rating of assessment
Description: Insecticidal Test Against Frankliniella occidentalis
Female adults of Frankliniella occidentalis were inoculated onto Phaseolus vulgaris leaf pieces, and after allowing them to lay eggs for one day, the female adults were removed. […] Four days after the treatment, the number of surviving larvae of this species was examined. […] In duplicate.

Plutella xylostella = test: Insecticidal test against Plutella xylostella; details: in Brassica rapa, 144 h, read-out: corrected mortality, rating of assessment
Description: Insecticidal Test Against Plutella xylostella
Six days after the immersion in the drug solution, the number of surviving insects was examined. […] In triplicate using 10 per plot.

[2] = system: L-1 stage larvae of Dirofilaria immitis; test: Evaluation test of influence on the movement of Dirofilaria immitis larvae; details: 72 h, read-out: corrected movement inhibition rate

Compound | mortality at 500 ppm [1] | mortality at 500 ppm (Plutella xylostella) | inhibition at 50 ppm [2]
CC(C)(C)OC(=O)N1CC(=O)C(C(=O)Nc2ccc(F)cc2)=C(O)C1 [Compound 1-36, tertiary-butyl 4-((4-fluorophenyl)carbamoyl)-5-hydroxy-3-oxo-3,6-dihydropyridine-1 (2H)-carboxylate] | 100% | 100% | ≥ 50%
CC(C)(C)OC(=O)N1CC(=O)C(C(=S)Nc2ccc(Cl)cc2)=C(O)C1 [Compound 2-13, tertiary-butyl 4-((4-chlorophenyl)carbamothioyl)-5-hydroxy-3-oxo-3,6-dihydropyridine-1 (2H)-carboxylate] |  | 100% | 
N#Cc1ccc(N2CC(O)=C(C(=O)Nc3ccc(F)cc3)C(=O)O2)cc1 [Compound 3-1, 2-(4-cyanophenyl)-N-(4-fluorophenyl)-4-hydroxy-6-oxo-3,6-dihydro-2H-1,2-oxazin-5-carboxamide] |  | 100% | 
O=C1CN(c2ncc(Br)cn2)CC(O)=C1C(=O)Nc1ccc(F)cc1 [Compound 1-65, 1-(5-bromopyrimidin-2-yl)-N-(4-fluorophenyl)-5-hydroxy-3-oxo-1,2,3,6-tetrahydropyridine-4-carboxamide] | 100% | 100% | 
